Laboratory results from paper PMC11979947, “Modeling Krebs cycle from liver, heart and hepatoma mitochondria, supported Complex I as target for specific inhibition of cancer cell proliferation” (Frontiers in Oncology, 2025).
Where two headings read alike, the source gives them in different places.

Assays:
[1] = system: MCF10A breast non-cancer cells; test: MTT cell proliferation assay, MCF10A; type: cell-based, human; details: for IC50: read-out: IC50 on proliferation
Procedure: (§1) Human cervix cancer HeLa and SiHa, human prostate cancer PC3, human colon cancer colo-205, and rat heart myoblast H9c2 cells (CRL-1446, ATCC, Manassas, VA, USA) were cultured in DMEM medium, while human breast cancer MCF7 cells were cultivated in MEM medium. Human breast epithelial MCF-10A cells (CRL-10317, ATCC, Manassas, VA, USA) were cultivated in F-12/DMEM medium. All media were supplemented with 25 mM glucose, 10% fetal bovine serum (Biowest, Riverside, MO, USA) and 10,000 U streptomycin/penicillin/mL under an atmosphere of 5% CO2 and 95% air at 37°C until 80-90% confluence.
(§2) The cell lines (20 × 10^3 cells/well) were grown in 96-well plates containing Dulbecco’s Modified Eagle’s Medium (DMEM) (Sigma-Aldrich, St Louis, MO, USA) for 24 h. Afterward, the cells were exposed to rotenone (1 nM to 50 µM) or malonate (0.1µM to 100 mM) for 24 h. Drug effects on cell proliferation were determined by using the 3-(4,5-dimethyl-thiazol-2-yl)-2,5-diphenyltetrazolium bromide (MTT) (Sigma-Aldrich, St Louis, MO, USA) assay. Plates were incubated at 37°C for 3 h; after, the medium was discarded, and the formazan crystals were dissolved with 100 µL DMSO. After 5 min incubation at 37°C, the absorbance was measured at λ 595 nm ([34]).

[2] = system: H9c2 heart myoblast cells; test: MTT cell proliferation assay, H9c2; type: cell-based, rat; details: read-out: IC50 on proliferation
Procedure: as §1, §2

MCF7 breast cancer cells = test: MTT cell proliferation assay, MCF7; type: cell-based, human; details: read-out: IC50 on proliferation
Procedure: as §1, §2

SiHa cervix cancer cells = test: MTT cell proliferation assay, SiHa; type: cell-based; details: Homo sapiens, 24 h, read-out: IC50 on proliferation
Procedure: as §1, §2

HeLa cervix cancer cells = test: MTT cell proliferation assay, HeLa; type: cell-based, human; details: read-out: IC50 on proliferation
Procedure: as §1, §2

[3] = system: PC3 prostate cancer cells; test: MTT cell proliferation assay, PC3; type: cell-based, human; details: read-out: IC50 on proliferation
Procedure: as §1, §2

[4] = system: COLO-205 colon cancer cells; test: MTT cell proliferation assay, COLO-205; type: cell-based, human; details: read-out: IC50 on proliferation
Procedure: as §1, §2

Structure (SMILES) | IC50 ([1]; Homo sapiens, MCF-10A, 24 h) [µM] | Effect on proliferation ([1]; MCF10A, 50 µM, 24 h of treatment) | IC50 ([2]; Rattus norvegicus, H9c2, 24 h) [µM] | IC50 (MCF7 breast cancer cells; Homo sapiens, MCF7, 24 h) [µM] | IC50 (SiHa cervix cancer cells) [µM] | IC50 (HeLa cervix cancer cells; Homo sapiens, 24 h) [µM] | IC50 ([3]; Homo sapiens, 24 h) [µM] | IC50 ([4]; Homo sapiens, COLO 205, 24 h) [µM] | IC50 ([1]; MCF10A, 24 h treatment, MTT) [µM] | IC50 ([2]; H9c2, 24 h treatment, MTT) [µM] | IC50 (MCF7 breast cancer cells; MCF7, 24 h treatment, MTT) [µM] | IC50 (HeLa cervix cancer cells; 24 h treatment, MTT) [µM] | IC50 ([3]; PC3, 24 h treatment, MTT) [µM] | IC50 ([4]; COLO-205, 24 h treatment, MTT) [µM]
C=C(C)[C@H]1Cc2c(ccc3c2O[C@@H]2COc4cc(OC)c(OC)cc4[C@@H]2C3=O)O1 [Rotenone, rotenone] | > 50 | not affected | 34 ± 10 | 0.15 ± 0.09 | 18 ± 3 | 17 ± 5 | 13 ± 1 | 37 ± 9 | – | – | – | – | – | –
O=C(O)CC(=O)O [Malonate, malonate] | – | – | – | – | – | – | – | – | 43000 ± 9000 | 25000 ± 5000 | 41000 ± 1000 | 27000 ± 5000 | 40000 ± 2000 | 32000 ± 3000
